Where two headings read alike, the source gives them in different places.

The target in experiment [1] is T1, CcSHMT1 (Erigeron canadensis, UniProt A0A8M0FGR5).
T1 construct: total CDS (1539 bp); homology model is a tetramer
T1 sequence (A0A8M0FGR5 1-513): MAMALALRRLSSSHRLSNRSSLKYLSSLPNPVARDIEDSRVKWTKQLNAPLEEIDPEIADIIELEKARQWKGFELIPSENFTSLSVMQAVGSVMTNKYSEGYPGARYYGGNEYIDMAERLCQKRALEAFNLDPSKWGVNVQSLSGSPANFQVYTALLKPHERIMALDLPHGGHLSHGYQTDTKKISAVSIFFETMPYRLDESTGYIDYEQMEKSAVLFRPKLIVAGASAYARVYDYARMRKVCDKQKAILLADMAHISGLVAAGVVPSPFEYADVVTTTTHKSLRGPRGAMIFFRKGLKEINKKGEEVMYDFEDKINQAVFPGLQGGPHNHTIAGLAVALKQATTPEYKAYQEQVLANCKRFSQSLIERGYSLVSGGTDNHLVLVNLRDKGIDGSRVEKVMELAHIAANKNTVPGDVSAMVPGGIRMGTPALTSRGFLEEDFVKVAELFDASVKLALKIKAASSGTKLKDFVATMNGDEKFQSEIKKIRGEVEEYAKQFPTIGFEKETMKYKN
Put plainly: microscale thermophoresis (MST). It is filed as binding.

Experiment [2] has as its target T2, CcSHMT1 (Erigeron canadensis, UniProt A0A8M0FGR5, S186A).
T2 construct: total CDS (1539 bp)
T2 sequence (A0A8M0FGR5 1-513 S186A): T1 sequence (A0A8M0FGR5 1-513)
Put plainly: microscale thermophoresis (MST). It is filed as binding. On the technique in general: In MST a laser heats a spot of the sample, and binding alters the fluorescence response.

For experiment [3], the target named is T3, CcSHMT1 (Erigeron canadensis, UniProt A0A8M0FGR5, A187T).
T3 construct: total CDS (1539 bp); homology model is a tetramer
T3 sequence (A0A8M0FGR5 1-513 A187T): T1 sequence (A0A8M0FGR5 1-513)
Put plainly: microscale thermophoresis (MST). It is filed as binding.

The target in experiment [4] is T1, CcSHMT1. Put plainly: SHMT activity by benzaldehyde production from DL-β-phenylserine. It is filed as biochemical. The conditions noted are these: competitive versus DL-β-phenylserine; CAP 0.63-44.23 μM, assayed 0.5 h after CAP addition.
Experiment [5] deals with T4, CcSHMT1 (Erigeron canadensis, UniProt A0A8M0FGR5, V188L).
T4 construct: total CDS (1539 bp)
T4 sequence (A0A8M0FGR5 1-513 V188L): T1 sequence (A0A8M0FGR5 1-513)
Put plainly: microscale thermophoresis (MST). It is filed as binding.

Broadly, the IC50 is the point on the concentration scale where inhibition reaches its midpoint. A high value points to weaker potency. As to `CCCCCCCC(=O)O` [Caprylic acid], the Kd on CcSHMT1 [1] (read-out: Kd) is 12.3 µM; on CcSHMT1 [2] it was 15.5 µM; at CcSHMT1 [3], 51.9 µM; at CcSHMT1 [5] it was 28 µM. This molecule showed an IC50 at CcSHMT1 [4] of 23.1 µM.
`COc1cc(C(=O)O)ccc1O` [Vanillic acid, reference compound]: the Kd at CcSHMT1 [1] (negative control, bound is the highest concentration tested, not a printed Kd, read-out: no binding up to 50 μM) is > 50 µM.

The values above are taken from doi:10.1101/2023.12.12.571245v1, “Serine hydroxymethyl transferase is a binding target of caprylic acid: Uncovering a novel molecular target for a herbicide and for producing caprylic acid-tolerant crops” (biorxiv, 2023).
